Test results: patent publication US20140309309A1, “COSMETIC FORMULATION” (EVONIK INDUSTRIES AG, priority 2011, published 2014)

What was measured:
[1] = system: healthy female subjects; assay: Human study, upper arm: echogenicity of the skin (DermaScan C); type: in vivo; settings: twice daily
Source text: The panel consisted of healthy female subjects of Caucasian origin up to 70 years old who were in their postmenopausal phase. The echogenicity of the skin on the upper arms of the subjects was at most 60% (DermaScan® C, B-scan mode). The formulations were applied to the upper arms. Vehicle formulation (vehicle) and formulation with different concentrations of N-hexanoyl-phytosphingosine (N-hexanoyl-phytosphingosine) was applied by in each case 16 subjects. In the non-inventive vehicle formulation, which serves as comparison formulation, the corresponding % by mass of N-hexanoyl-phytosphingosine were replaced by additional % by mass of water.
(§1) Application was carried out twice daily, morning and evening, over a period of twelve weeks. Measurement points were before the start of application (T0), after four weeks (T4), after eight weeks (T8) and after twelve weeks (T12). A period over four weeks is accordingly referred to as T4-T0.
The measurements were performed in a temperature- and humidity-controlled room (24±2° C., 50±10 relative humidity). The subjects were asked to apply no product up to twelve hours before measurement and to no longer wash their arms from three hours before measurement.
The skin slackening was measured by measuring the echogenicity of the skin by means of a DermaScan® C ultrasound scanner. The echogenicity was recorded in the B-scan mode and given in %. […]

[2] = system: healthy female subjects; assay: Human study, face: skin roughness (Primos Pico, Sa parameter); type: in vivo; settings: 0.2% by mass in formulation, twice daily, entire study period of twelve weeks (FIG. 2)
Source text: (§2) The panel comprises 60 healthy female subjects of Caucasian origin up to 70 years of age who were in their postmenopausal phase (average age 59.4 years). The formulations were applied on the face. Vehicle formulation (vehicle) and N-hexanoyl-phytosphingosine formulation (N-hexanoyl-phytosphingosine) was each applied by 30 subjects. In the case of the non-inventive vehicle formulation, which serves as comparison formulation, the 0.2% by mass of N-hexanoyl-phytosphingosine were replaced by an additional 0.2% by mass of water.
Application was carried out twice daily, morning and evening, over a period of twelve weeks. Measurement points were before the start of application (T0), after four weeks (T4), after eight weeks (T8) and after twelve weeks (T12). A period over four weeks is accordingly referred to as T4-T0. […]
The roughness of the skin was determined by means of Primos Pico optical 3D-Sensor (GF Messtechnik GmbH). […] Bands are projected onto the surface of the skin and the projection is recorded under a defined triangulation angle by means of a CCD camera. The topography of the measured object is calculated by the position of the bands and the grey scales of all registered image points. […] The average roughness Sa was determined; this reflects the arithmetic mean of the skin roughness in the recorded image.

[3] = Percutaneous absorption study on a pig skin model; type: in vitro ADME; settings: 0.2% in formulation in combination with 1.80% 1,2-pentanediol vs corresponding formulations without 1,2-pentanediol (FIG. 4)
Experimental: The increase in the skin penetration of N-hexanoyl-phytosphingosine from a cosmetic formulation as a result of adding 1,2-pentanediol was shown in the course of a percutaneous absorption study on a pig skin model. In practice, the study was performed in accordance with a current protocol, as described for example in S. Richert, A. Schrader, K. Schrader, Int. J. Cosmet. Sci. 2003, 25, 5-13.

[4] = system: healthy female subjects; assay: Human study, face: sagging of the skin assessed by a dermatologist (4-point scale); type: in vivo; settings: 0.2% by mass in formulation with 1,2-pentanediol, twice daily, twelve weeks, all time points, compared with vehicle group (FIG. 1)
Source text: as §2, §1
(§3) The measurements were performed in a temperature- and humidity-controlled room (24±2° C., 50±10 relative humidity). The subjects were requested to apply no product up to twelve hours prior to measurement and to wash their face three hours before measurement.
The sagging of the skin was assessed by a dermatologist by means of visual and tactile evaluation by reference to a 4-point scale (0=absent, 1=minimum, 2=moderate, 3=maximum).

[5] = system: healthy female subjects; assay: Human study, face: echogenicity of the skin (DermaScan C); type: in vivo; settings: 0.2% by mass in formulation, twice daily
Source text: as §2, §1, §3
The echogenicity of the skin was measured using a DermaScan® C ultrasound scanner. The instrument is based on the physical principle of the ultrasound emission of a transducer. […] Their intensity is detected by a microprocessor. […] The echogenicity was recorded in the B-scan mode and given in %. […]

[6] = system: differentiated human adipocytes; assay: Gene expression in differentiated human adipocytes (Affymetrix GeneChip); type: cell-based; settings: 2.5 μM, 6 h, vs vehicle-treated adipocytes
Experimental: This example investigated the effect of N-hexanoyl-phytosphingosine on the gene expression in differentiated human adipocytes.
Cells, media and reagents were acquired from PromoCell. The cultivation was carried out in accordance with the protocol from PromoCell. Unless stated otherwise, the cells were cultivated at 37° C. and 5% CO2. Firstly, proliferating subcutaneous primary human white preadipocytes (HWP) from two different donors were cultivated in a special preadipocyte growth medium until complete confluence was reached. The medium was then exchanged for a special differential medium, and the cells were incubated with this medium for 72 hours. The medium was then exchanged for a further medium (Adipocyte Nutrition Medium) in order to conclude the differentiation process. The cells were further incubated with this medium for twelve days, with media exchange being carried out every three days. Ultimately, the medium was removed from the cells and replaced by fresh medium containing N-hexanoyl-phytosphingosine. The vehicle used was methanol, the end concentration of the vehicle in the medium being 0.05% (v/v). End concentration of N-hexanoyl-phytosphingosine in the medium was 2.5 μM. As the control, the cultivation was carried out without active ingredient, only with medium (vehicle). All of the cultivations were performed twice (with cells from two different donors).
(§4) After cultivation for six hours, the medium was removed and the cells were lysed by adding RNeasy Lysis Buffer (Qiagen). Isolation of whole-RNA was carried out in accordance with manufacturer's instructions. Combined, the whole-RNA was isolated by means of RNeasy Mini Kit (Qiagen). The RNA concentration was determined by spectrophotometry using a SmartSpec Plus (Biorad). Purity and integrity of the RNA were determined using Agilent 2100 Bioanalyzer with a 6000 Nano LabChip reagent set (Agilent Technologies, Inc.). RNA samples were stored at −80° C. until further processing.
(§5) Analysis of the gene expression was carried out using Affymetrix HGU133 plus 2.0 GeneChips (Affymetrix), with 2 μg of whole-RNA being used. For this, the RNA of the two different donor cultures was pooled. Expression analyses including standard data evaluation were carried out in accordance with manufacturer's instructions (Affymetrix.).

[7] = system: human dermal fibroblasts; assay: Gene expression in human dermal fibroblasts (Affymetrix GeneChip); type: cell-based; settings: 5 μM, 24 h, vs vehicle-treated fibroblasts
Source text: The present example investigates the effect of N-hexanoyl-phytosphingosine on the gene expression in fibroblasts (normal human dermal fibroblasts, NHDFs).
For this, firstly primary human dermal fibroblasts (human dermal fibroblasts derived from neonatal skin, HDF), cryopreserved, Lifeline Cell Technology, acquired via CellSystems® Biotechnologie Vertrieb GmbH, in Minimum Essential Medium (MEM) with Earle's salts (EMEM) (PAA Laboratories GmbH) were cultivated with the addition of 10% foetal bovine serum (FBS, Invitrogen Ltd, UK), 1% nonessential amino acids (NEAA) (100×) (PAA Laboratories GmbH), 1% L-glutamine (100×) (Invitrogen Ltd) and 1% penicillin/streptomycin (5000 U/mL penicillin and 5000 μg/mL streptomycin/mL, (Invitrogen Ltd) at 37° C. and 5% CO2. For gene expression studies, the cells were sown out in 6-well plates and cultivated to the point of subconfluence (maximum 60%).
Then, the medium was removed from the cells and replaced by fresh medium containing N-hexanoyl-phytosphingosine. The vehicle used was methanol, the end concentration of the vehicle in the medium being 0.05% (v/v). The end concentration of N-hexanoyl-phytosphingosine in the medium was 5 μM. As the control, the cultivation was carried out without active ingredient, only with medium (vehicle). All of the cultivations were performed twice (with cells from two different donors).
as §4, with “24” for “six”
as §5, with “(AFFYMETRIX, INC.).” for “(Affymetrix.).”

- bioavailability (skin penetration) of N-hexanoyl-phytosphingosine from formulation [3]: increase in bioavailability
SMILES: CCCCCCCCCCCCCC[C@@H](O)[C@@H](O)[C@H](CO)NC(=O)CCCCC [N-hexanoyl-phytosphingosine]
- echogenicity of the skin on the upper arm compared with the starting value ([1]; 0.02% in formulation, increase only measurable after a treatment time of eight weeks (FIG. 5)): less marked
- echogenicity of the skin on the upper arm compared with the starting value ([1]; 0.05% in formulation, four, eight and twelve weeks (FIG. 5)): increase in the echogenicity of the skin
- change in skin roughness (Sa parameter) [2]: steadily further reduced
- decrease in sagging of the skin [4]: more marked
- change in the echogenicity of the skin ([5]; after four weeks (T4-T0) (FIG. 3)): slight decrease in echogenicity
- change in the echogenicity of the skin ([5]; as the study progressed (to T12) (FIG. 3)): steadily improved
- Regulation of the gene expression by N-hexanoyl-phytosphingosine: ACACA (acetyl-coenzyme A carboxylase alpha) [6]: +1.5 fold
- Regulation of the gene expression by N-hexanoyl-phytosphingosine: ADIPOQ (adiponectin) [6]: +2.2 fold
- Regulation of the gene expression by N-hexanoyl-phytosphingosine: CEBPB (CAAT/enhancer binding protein (C/EBP), beta) [6]: +2.1 fold
- Regulation of the gene expression by N-hexanoyl-phytosphingosine: FAS (fatty acid synthase) [6]: +1.4 fold
- Regulation of the gene expression by N-hexanoyl-phytosphingosine: LEP (leptin) [6]: +2.7 fold
- Regulation of the gene expression by N-hexanoyl-phytosphingosine: LEPR (leptin receptor) [6]: +4.1 fold
- Regulation of the gene expression by N-hexanoyl-phytosphingosine: LIPC (lipase) [6]: −2.5 fold
- Regulation of the gene expression by N-hexanoyl-phytosphingosine: PPARD (peroxisome proliferator activated receptor, delta) [6]: +1.7 fold
- Regulation of the gene expression by N-hexanoyl-phytosphingosine: PPARG (peroxisome proliferator activated receptor, gamma) [6]: +2.5 fold
- Regulation of the gene expression by N-hexanoyl-phytosphingosine: THBS1 (thrombospondin 1) [6]: +5.9 fold
- Regulation of the gene expression by N-hexanoyl-phytosphingosine: ACAN (aggrecan) [7]: +1.7 fold
- Regulation of the gene expression by N-hexanoyl-phytosphingosine: COL10A1 (collagen, type X, alpha 1) [7]: +3.2 fold
- Regulation of the gene expression by N-hexanoyl-phytosphingosine: COL11A1 (collagen, type XI, alpha 1) [7]: +2.2 fold
- Regulation of the gene expression by N-hexanoyl-phytosphingosine: FGF18 (fibroblast growth factor 18) [7]: +2.2 fold
- Regulation of the gene expression by N-hexanoyl-phytosphingosine: HAPLN1 (hyaluronan and proteoglycan link protein) [7]: +4.1 fold
- Regulation of the gene expression by N-hexanoyl-phytosphingosine: IGF1 (insulin-like growth factor 1) [7]: +2.0 fold
- Regulation of the gene expression by N-hexanoyl-phytosphingosine: ITGA2 (integrin alpha-2) [7]: +1.6 fold
- Regulation of the gene expression by N-hexanoyl-phytosphingosine: LEP (leptin) [7]: +2.2 fold
- Regulation of the gene expression by N-hexanoyl-phytosphingosine: MMP3 (matrix metallopeptidase 3) [7]: −1.4 fold
